Assay results as given in PMC5500233 (Peptides, 2016).
Values joined by “and” are separate entries in the source; they are usually repeats but may differ in a detail not shown here. Identical values can stand only once. “Also recorded” adds a separate entry of the source.

Experiments:
[1] = test system: HK-2 peptidase; conditions: ref [25]; cited from earlier work
[2] = test system: Ang-(1–7) peptidase, partially purified fraction from brain medulla; conditions: ref [15], cited from earlier work
[3] = test system: DPP 3; conditions: ref [2],[15]; cited from earlier work
[4] = test system: purified Ang-(1–7) peptidase from HK-2 cells; test: JMV-390 inhibition of ^125I-Ang-; type: biochemical, human; conditions: JMV-390, Fig. 3: 0.5 and 10 nM
[5] = biological target: T1, human DPP 3 (Homo sapiens, UniProt Q9NY33); test: JMV-390 inhibition of ^125I-Ang-; type: biochemical; conditions: JMV-390, Fig. 3: 0.5 and 10 nM
T1 sequence (Q9NY33 1-737): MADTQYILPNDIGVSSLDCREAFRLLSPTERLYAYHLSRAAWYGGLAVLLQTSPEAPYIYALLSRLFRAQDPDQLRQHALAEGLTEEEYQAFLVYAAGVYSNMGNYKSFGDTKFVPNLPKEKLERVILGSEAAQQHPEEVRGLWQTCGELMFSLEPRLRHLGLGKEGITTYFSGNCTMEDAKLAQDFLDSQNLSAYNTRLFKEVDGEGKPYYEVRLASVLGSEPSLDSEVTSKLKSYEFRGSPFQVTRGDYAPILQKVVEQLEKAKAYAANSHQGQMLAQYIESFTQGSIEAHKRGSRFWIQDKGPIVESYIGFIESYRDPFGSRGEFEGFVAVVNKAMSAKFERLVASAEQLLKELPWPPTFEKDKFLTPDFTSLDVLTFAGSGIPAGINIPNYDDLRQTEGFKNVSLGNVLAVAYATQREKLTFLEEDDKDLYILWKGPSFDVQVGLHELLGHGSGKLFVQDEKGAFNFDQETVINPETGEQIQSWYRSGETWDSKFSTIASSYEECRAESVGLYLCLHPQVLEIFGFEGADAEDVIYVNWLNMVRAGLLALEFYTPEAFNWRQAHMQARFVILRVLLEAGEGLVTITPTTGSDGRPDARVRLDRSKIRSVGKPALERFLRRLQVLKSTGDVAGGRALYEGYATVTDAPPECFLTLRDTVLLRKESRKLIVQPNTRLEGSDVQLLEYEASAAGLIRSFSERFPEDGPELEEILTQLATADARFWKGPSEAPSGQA

[6] = biological target: T1, human DPP 3; test: Metabolism of unlabeled Ang-; type: biochemical; conditions: 100 μM Ang-(1–7), 37 °C, HPLC-UV
[7] = test system: DPP 3 activity in HK-2 cells; test: ^125I-Ang-; type: cell-based, human; conditions: for peptidase activity: mean±SEM, control 136±6
[8] = test system: HK-2 cells; test: Intracellular Ang-; type: cell-based, human
[9] = biological target: Ang-(1–7) peptidase, partially purified fraction from brain medulla; conditions: JMV-390; brain medulla Ang-(1–7) peptidase; ref [15]; cited from earlier work
[10] = biological target: Ang-(1–7) peptidase in renal tubules; conditions: JMV-390, ref [15],[25]; cited from earlier work
[11] = test system: TOP expressed in the HK-2 cells; conditions: high dose of JMV-390; ref [25]; cited from earlier work
[12] = test system: Ang-(1–7) RIA; conditions: as previously described; ref [27]; cited from earlier work
[13] = biological target: T1, human DPP 3; test: Kinetic studies of Ang-; type: biochemical; conditions: 37 °C, n=3

In the case of [Abz-Asp^1, Tyr (NO2)^7]-Ang-(1–7)], the “hydrolysis by HK-2 peptidase” value [1] is listed as “resistant”.
In the case of apelin 13, the “metabolism by enriched peptidase” value [2] is listed as “failed to metabolize”.
In the case of `c1cnc2c(c1)ccc1cccnc12` [ophenanthroline], the “sensitivity of DPP 3 to thiol inhibitors and chelating agents” value [3] is listed as “unusual sensitivity”.
For `CC[C@H](C)[C@H](NC(=O)[C@@H](CC(=O)NO)Cc1ccccc1)C(=O)N[C@@H](CC(C)C)C(=O)O` [JMV-390], the “effect on Ang-(1–7) hydrolysis by purified Ang-(1–7) peptidase” value [4] was “abolished; also recorded: attenuated the metabolism”, the “effect on Ang-(1–7) hydrolysis by DPP 3” value [5] was “abolished; also recorded: attenuated the metabolism” and the “metabolism of unlabeled Ang-(1–7) to Ang-(5–7) in presence of inhibitor” value ([6]; JMV-390 1 μM, 100 ng DPP 3, 60 min) was “attenuated the metabolism of Ang-(1–7)”. The peptidase activity ([7]; 20 nM JMV-390, 72 h, n = 2) was 76 ± 13 fmol/min/mg, the peptidase activity ([7]; 200 nM JMV-390, 72 h, n = 3, p<0.05) was 17 ± 3 fmol/min/mg and the “reduction of peptidase (DPP 3) activity” value ([7]; 200 nM JMV-390, 72 h, vs control, n = 3, p<0.05) was 85% and > 80%. For the same compound, the “effect on metabolism of ^125I-Ang-(1–7) to ^125I-Ang-(3-4)” value ([7]; 20 or 200 nM JMV-390, 72 h, 100,000 × g cytosolic fraction) was “significantly reduced the metabolism”, the “effect on intracellular content of Ang-(1–7)” value ([8]; 20 nM JMV-390, 72 h) was “tended to augment the cellular levels of Ang-(1–7); also recorded: increased the intracellular content of Ang-(1–7)” and the “increase in Ang-(1–7) content” value ([8]; 20 nM JMV-390, 72 h, vs basal, n = 3, not statistically significant) was 68%. For the same compound, the “effect on intracellular content of Ang-(1–7)” value ([8]; 200 nM JMV-390, 72 h) was “significantly decreased the content of Ang-(1–7)”, the “Ang-(1–7) content” value ([8]; 200 nM JMV-390, 72 h, RIA, mean±SEM, n = 3, p<0.05 vs 20 nM JMV-390, basal 22 ±2) was 15 ±3 fmols/mg protein and the “increase in cellular levels of Ang-(1–7)” value ([8]; lower dose (20 nM) of JMV-390, not statistically significant) was “approximately 2 fold”. For the same compound, the IC50 [9] was under 1 nM, the IC50 [10] was about 1 nM and the “direct conversion of ^125I-Ang I to ^125I-Ang-(1–7) by TOP” value [11] was “inhibited the direct conversion”.
For APMA, the “sensitivity of DPP 3 to thiol inhibitors and chelating agents” value [3] is listed as “unusual sensitivity”.
In the case of neurotensin, the “metabolism by enriched peptidase” value [2] is given as “failed to metabolize”.
In the case of “bradykinin (RPPGFSPFR; Bradykinin; UniProt P01042 381-389, looked up)”, the “metabolism by enriched peptidase” value [2] is listed as “failed to metabolize”.
For “Ang II: angiotensin peptide (DRVYIHPF; Angiotensin-2; UniProt P01019 25-32, looked up)”, the “recognition by Ang-(1–7) RIA (cross-reactivity)” value [12] is given as under 0.01%.
In the case of “Ang-(2–7): angiotensin peptide recognized by the Ang-(1–7) RIA (RVYIHP; UniProt P01019 26-31, looked up, fragment)”, the “recognition by Ang-(1–7) RIA” value [12] is listed as “recognizes”.
For `O=C(O)c1cc[c]([Hg][Cl])cc1` [PCMB], the “sensitivity of DPP 3 to thiol inhibitors and chelating agents” value [3] is listed as “unusual sensitivity”.
For Angiotensin-(1–7) [Ang-(1–7)], the kcat [13] is listed as 7.3 s⁻¹, the “product of unlabeled Ang-(1–7) hydrolysis” value ([6]; 100 ng human DPP 3, 60 min) is listed as “a major peak corresponding to the metabolite Ang-(5–7)” and the “hydrolysis rate, fold higher than Ang II” value ([2]; enriched brain medulla peptidase) is listed as 12 fold.
In the case of `O=C(O)CN(CCN(CC(=O)O)CC(=O)O)CC(=O)O` [EDTA], the “sensitivity of DPP 3 to thiol inhibitors and chelating agents” value [3] is listed as “unusual sensitivity”.
